Experimental data: patent publication US20200046860A1, “Systems and Methods for the Detection of Hydroxychloroquine-Mediated Cardiotoxicity” (Mayo Foundation for Medical Education and Research, priority 2018, published 2020)

Assays:
cardiac myocytes = test: Endomyocardial biopsy of patient on hydroxychloroquine; type: in vivo, human; settings: same patient
Protocol: An endomyocardial biopsy was performed on the same subject. […] Amyloid was not present on special stains, including sulfated Alcian blue stain and Congo red stains (C of FIG. 4 and D of FIG. 4, respectively, ×100 original magnification).

Excerpt for heart: Planar scintigraphy (D of FIG. 3) of ^99mTc-PYP uptake allows count comparison between the heart (right) with the contralateral chest (left) on 3-hour uptake anterior planar imaging.

Compound: CCN(CCO)CCCC(C)Nc1ccnc2cc(Cl)ccc12 (stereo not drawn) [hydroxychloroquine]
- left ventricular wall finding on echocardiogram (heart; human, in vivo): concentric left ventricular wall thickening
- global averaged longitudinal peak systolic strain (heart; patient on hydroxychloroquine for 15 years, abnormal, most preserved at the apex): −10%
- hematoxylin and eosin-stained section finding (cardiac myocytes; light microscopy): marked sarcoplasmic vacuolization of cardiac myocytes
- toluidine blue-stained thick section finding (cardiac myocytes): dense sarcoplasmic inclusions
- electron microscopy finding (cardiac myocytes; in keeping with hydroxychloroquine-mediated cardiotoxicity): presence of myelinoid and curvilinear bodies
- amyloid on special stains (cardiac myocytes; sulfated Alcian blue and Congo red stains): not present
